Measurements published in ChEMBL document CHEMBL1681768, “Synthesis and biological evaluation of 4-quinazolinones as Rho kinase inhibitors” (Bioorg Med Chem Lett, 2011).

Key:
Format in all cases: ADME, organism-based
[1] = Volume of distribution at steady state in Sprague-Dawley rat at 1 mg/kg, iv; parameters: dose 1 mg/kg, route intravenous; conditions: in vivo, read-out: Vdss
[2] = Cmax in Sprague-Dawley rat at 2 mg/kg, po; parameters: dose 2 mg/kg, route oral; conditions: in vivo
[3] = AUC in Sprague-Dawley rat at 2 mg/kg, po; parameters: dose 2 mg/kg, route oral; conditions: plasma
[4] = Oral bioavailability in Sprague-Dawley rat at 2 mg/kg; conditions: in vivo

SMILES	Vd [1] [L/kg]	Cmax [2] [nM]	AUC [3] [µM·h]	bioavailability [4] [%]
COc1ccc2c(c1)CC(c1nc3ccc(-c4cn[nH]c4)cc3c(=O)[nH]1)CO2 (centres undefined)	0.27	8000	43.4	66
COc1ccc2c(c1)C[C@H](c1nc3ccc(-c4cn[nH]c4)cc3c(=O)[nH]1)CO2	0.14	2850	63.2	46
COc1ccc2c(c1)C[C@@H](c1nc3ccc(-c4cn[nH]c4)cc3c(=O)[nH]1)CO2	0.49	580	2.36	13
COc1ccc2c(c1)CC(c1nc3c(OC)cc(-c4cn[nH]c4)cc3c(=O)[nH]1)CO2 (centres undefined)	0.1	4600	87.9	26
COc1ccc2c(c1)CC(c1nc3c(OCCN(C)C)cc(-c4cn[nH]c4)cc3c(=O)[nH]1)CO2 (centres undefined)	1.3	50	0.15	3
COc1cccc(OCc2nc3c(OC)cc(-c4cn[nH]c4)cc3c(=O)[nH]2)c1	0.22	660	9.63	15
